Active and inactive are the calls of the source. The calls are words filed in the database; no cut-off is given here.
Assays:
[1] = molecular target: Platelet-derived growth factor receptor beta (Homo sapiens) (UniProt P09619); experiment: Induction of PDGFR degradation in human MV4-11 cells at 0 to 25 nM after 24 hrs by Western blot analysis; format: cell-based; conditions: dose 0-25 nM
[2] = molecular target: Tyrosine-protein kinase ITK/TSK (Homo sapiens) (UniProt Q08881); conditions: dose 1000.0 nM
Tyrosine-protein kinase ITK/TSK (Homo sapiens), sequence (Q08881 whole entry): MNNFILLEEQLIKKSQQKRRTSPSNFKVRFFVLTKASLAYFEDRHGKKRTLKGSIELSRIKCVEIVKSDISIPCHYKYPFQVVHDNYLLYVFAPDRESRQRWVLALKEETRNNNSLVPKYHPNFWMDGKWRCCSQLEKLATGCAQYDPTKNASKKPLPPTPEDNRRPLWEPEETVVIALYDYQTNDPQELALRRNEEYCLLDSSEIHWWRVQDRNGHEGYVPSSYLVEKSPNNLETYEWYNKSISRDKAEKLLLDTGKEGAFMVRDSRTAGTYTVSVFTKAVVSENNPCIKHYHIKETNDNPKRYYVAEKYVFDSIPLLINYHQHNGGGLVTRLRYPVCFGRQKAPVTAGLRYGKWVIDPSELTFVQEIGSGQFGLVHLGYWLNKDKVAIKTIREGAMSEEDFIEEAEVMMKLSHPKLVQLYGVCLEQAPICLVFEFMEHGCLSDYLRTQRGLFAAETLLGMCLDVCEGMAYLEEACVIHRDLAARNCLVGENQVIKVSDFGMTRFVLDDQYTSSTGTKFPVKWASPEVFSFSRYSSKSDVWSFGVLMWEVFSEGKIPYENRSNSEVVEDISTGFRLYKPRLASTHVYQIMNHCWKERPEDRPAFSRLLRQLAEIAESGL
Description: Inhibition of ITK (unknown origin) at 1000 nM relative to control

[3] = molecular target: Mitogen-activated protein kinase 3 (Homo sapiens) (UniProt P27361); experiment: Inhibition of ERK1 (unknown origin) at 1000 nM relative to control
[4] = molecular target: Mast/stem cell growth factor receptor Kit (Homo sapiens) (UniProt P10721); experiment: Inhibition of KIT in human MOLM-13 cells assessed as reduction in STAT3 phosphorylation at 5 to 25 nM after 24 hrs by Western blot analysis; format: cell-based; conditions: dose 5-25 nM
Mast/stem cell growth factor receptor Kit (Homo sapiens), sequence (P10721 whole entry): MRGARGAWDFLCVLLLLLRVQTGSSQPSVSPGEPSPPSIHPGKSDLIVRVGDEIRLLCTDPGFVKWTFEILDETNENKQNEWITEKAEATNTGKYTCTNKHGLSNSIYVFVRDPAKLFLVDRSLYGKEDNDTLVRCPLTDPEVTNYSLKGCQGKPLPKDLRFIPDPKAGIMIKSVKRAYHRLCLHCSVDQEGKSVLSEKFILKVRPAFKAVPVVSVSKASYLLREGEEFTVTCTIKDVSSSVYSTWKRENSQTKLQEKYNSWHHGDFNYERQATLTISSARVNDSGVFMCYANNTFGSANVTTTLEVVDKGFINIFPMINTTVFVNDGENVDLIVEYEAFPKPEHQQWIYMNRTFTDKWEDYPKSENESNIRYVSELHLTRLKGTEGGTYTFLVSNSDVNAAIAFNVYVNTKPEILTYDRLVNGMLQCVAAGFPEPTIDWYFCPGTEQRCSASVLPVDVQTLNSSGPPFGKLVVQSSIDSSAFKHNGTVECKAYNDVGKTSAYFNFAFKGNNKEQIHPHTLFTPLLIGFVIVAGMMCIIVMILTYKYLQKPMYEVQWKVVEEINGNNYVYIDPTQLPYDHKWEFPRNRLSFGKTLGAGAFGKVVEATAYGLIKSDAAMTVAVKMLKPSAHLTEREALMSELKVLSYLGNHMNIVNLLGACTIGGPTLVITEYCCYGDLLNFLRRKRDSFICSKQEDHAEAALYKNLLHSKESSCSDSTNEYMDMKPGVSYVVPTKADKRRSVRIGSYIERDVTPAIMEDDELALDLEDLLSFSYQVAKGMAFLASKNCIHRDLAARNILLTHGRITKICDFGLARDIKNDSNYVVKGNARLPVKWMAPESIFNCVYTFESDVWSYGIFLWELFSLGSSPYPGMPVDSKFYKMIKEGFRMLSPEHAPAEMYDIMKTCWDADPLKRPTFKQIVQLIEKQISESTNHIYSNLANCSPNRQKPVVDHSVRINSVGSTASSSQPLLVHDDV

[5] = system: Receptor-type tyrosine-protein kinase FLT3 (Homo sapiens), P36888 [UNDEFINED MUTATION]; experiment: Induction of FLT3-ITD degradation in human MOLM-13 cells after 24 hrs by Western blot analysis; format: cell-based
Receptor-type tyrosine-protein kinase FLT3 (Homo sapiens), P36888 [UNDEFINED MUTATION], sequence (P36888 whole entry, looked up, change not shown, the tested form may be a part): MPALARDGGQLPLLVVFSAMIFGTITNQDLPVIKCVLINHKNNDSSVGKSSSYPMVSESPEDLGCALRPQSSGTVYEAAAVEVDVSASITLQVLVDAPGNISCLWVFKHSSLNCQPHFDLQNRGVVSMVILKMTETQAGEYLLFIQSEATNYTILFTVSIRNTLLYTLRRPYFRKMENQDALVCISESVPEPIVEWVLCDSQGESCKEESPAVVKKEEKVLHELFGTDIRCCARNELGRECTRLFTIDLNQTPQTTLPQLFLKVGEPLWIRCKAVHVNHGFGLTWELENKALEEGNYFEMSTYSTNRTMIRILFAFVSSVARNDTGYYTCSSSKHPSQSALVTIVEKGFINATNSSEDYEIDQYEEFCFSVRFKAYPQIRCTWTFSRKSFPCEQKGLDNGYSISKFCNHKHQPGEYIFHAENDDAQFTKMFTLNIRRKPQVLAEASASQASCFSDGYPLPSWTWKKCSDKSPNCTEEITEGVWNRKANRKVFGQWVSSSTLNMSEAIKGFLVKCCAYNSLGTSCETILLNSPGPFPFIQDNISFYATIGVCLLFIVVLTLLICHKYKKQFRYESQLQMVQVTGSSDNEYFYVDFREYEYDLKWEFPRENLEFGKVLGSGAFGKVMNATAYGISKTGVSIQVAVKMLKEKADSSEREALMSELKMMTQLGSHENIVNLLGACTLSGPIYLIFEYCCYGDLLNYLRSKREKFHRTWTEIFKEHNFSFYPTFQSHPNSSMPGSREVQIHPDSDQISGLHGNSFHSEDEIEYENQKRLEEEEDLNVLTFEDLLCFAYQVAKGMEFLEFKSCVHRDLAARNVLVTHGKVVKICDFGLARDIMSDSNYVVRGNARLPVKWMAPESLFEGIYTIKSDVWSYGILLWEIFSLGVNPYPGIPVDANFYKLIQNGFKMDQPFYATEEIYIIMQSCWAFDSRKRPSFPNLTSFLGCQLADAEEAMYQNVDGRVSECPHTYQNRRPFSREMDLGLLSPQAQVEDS

[6] = molecular target: Receptor-type tyrosine-protein kinase FLT3 (Homo sapiens) (UniProt P36888); experiment: Inhibition of FLT3 in human MV4-11 cells assessed as reduction in STAT5 phosphorylation at 15 nM by Western blot analysis; format: cell-based; conditions: time 0-12 hrs, TDE = time-dependent effect
Receptor-type tyrosine-protein kinase FLT3 (Homo sapiens), sequence (P36888 whole entry): as the sequence (P36888 whole entry, looked up, change not shown, the tested form may be a part) above

[7] = molecular target: RAC-alpha serine/threonine-protein kinase (Homo sapiens) (UniProt P31749); experiment: Inhibition of AKT1 (unknown origin) at 1000 nM relative to control
[8] = system: Receptor-type tyrosine-protein kinase FLT3 (Homo sapiens), P36888 [UNDEFINED MUTATION]; experiment: Induction of FLT3-ITD degradation in human MV4-11 cells assessed as accumulation of ubiquitinated FLT3-ITD at 15 nM preincubated for 4 hrs followed by MG132 addition for 2 hrs by immunoprecipitation assay; format: cell-based; conditions: time 6.0 hrs
[9] = molecular target: Tyrosine-protein kinase ABL1 (Homo sapiens) (UniProt P00519); conditions: dose 1000.0 nM
Description: Inhibition of ABL (unknown origin) at 1000 nM relative to control

[10] = molecular target: Receptor-type tyrosine-protein kinase FLT3 (Homo sapiens) (UniProt P36888); experiment: Inhibition of FLT3 in human MV4-11 cells assessed as reduction in AKT phosphorylation at 15 nM by Western blot analysis; format: cell-based; conditions: time 0-12 hrs, TDE = time-dependent effect
MOLM-13 [11] = experiment: Induction of apoptosis in human MOLM-13 cells assessed as downregulation of Mcl-1 level at 15 nM measured upto 12 hrs by Western blot analysis; format: functional, cell-based; conditions: time hrs <=12
MOLM-13 [12] = experiment: Induction of apoptosis in human MOLM-13 cells after 48 hrs by Annexin-V/PI staining based flow cytometry; format: functional, cell-based; conditions: dose 1.25-10 nM
MOLM-13 [13] = experiment: Antiproliferative activity against human MOLM-13 cells incubated for 48 hrs by CCK-8 assay; format: functional, cell-based; conditions: MOLM-13, 48 h
[14] = molecular target: Casein kinase I isoform alpha-like (Homo sapiens) (UniProt Q8N752); experiment: Inhibition of CK1A1 (unknown origin) at 1000 nM relative to control
Casein kinase I isoform alpha-like (Homo sapiens), sequence (Q8N752 whole entry, canonical isoform): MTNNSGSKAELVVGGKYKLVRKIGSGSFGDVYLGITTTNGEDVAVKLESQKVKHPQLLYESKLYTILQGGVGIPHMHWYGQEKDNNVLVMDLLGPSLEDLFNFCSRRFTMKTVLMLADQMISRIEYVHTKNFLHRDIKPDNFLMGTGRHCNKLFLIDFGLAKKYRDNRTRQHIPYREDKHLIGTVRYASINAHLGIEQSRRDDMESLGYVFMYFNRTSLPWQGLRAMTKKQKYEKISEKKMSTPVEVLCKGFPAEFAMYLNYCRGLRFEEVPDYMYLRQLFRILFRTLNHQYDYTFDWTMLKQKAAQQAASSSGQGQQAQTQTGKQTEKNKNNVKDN

[15] = molecular target: Rho-associated protein kinase 1 (Homo sapiens) (UniProt Q13464); experiment: Inhibition of ROCK1 (unknown origin) at 1000 nM relative to control
MV4-11 [16] = experiment: Induction of apoptosis in human MV4-11 cells assessed as upregulation of cleaved caspase-3 level at 15 nM by Western blot analysis; format: functional, cell-based; conditions: time 0-12 hrs, TDE = time-dependent effect
[17] = molecular target: Mast/stem cell growth factor receptor Kit (Homo sapiens) (UniProt P10721); experiment: Inhibition of KIT (unknown origin) at 1000 nM relative to control
[18] = molecular target: Mitogen-activated protein kinase kinase kinase 14 (Homo sapiens) (UniProt Q99558); experiment: Inhibition of NIK (unknown origin) at 1000 nM relative to control
MV4-11 [19] = experiment: Induction of apoptosis in human MV4-11 cells assessed as downregulation of Bcl-2 level at 15 nM measured upto 12 hrs by Western blot analysis; format: functional, cell-based; conditions: time hrs <=12
MV4-11 [20] = experiment: Antitumor activity against human MV4-11 cells xenografted in NOD/SCID mouse assessed as reduction in CD45-positive cells in bone marrow at 3 mg/kg/day, iv administered for 12 days by flow cytometry analysis (reference value: 32.23 %); format: functional; set-up: scale not given: the % may be the effect or the level left; conditions: time 12 day
[21] = system: Receptor-type tyrosine-protein kinase FLT3 (Homo sapiens), P36888 [UNDEFINED MUTATION]; experiment: Induction of FLT3-ITD degradation in human MV4-11 cells after 24 hrs by Western blot analysis; format: cell-based
[22] = molecular target: Discoidin domain-containing receptor 2 (Homo sapiens) (UniProt Q16832); experiment: Inhibition of DDR2 (unknown origin) at 1000 nM relative to control
[23] = molecular target: Vascular endothelial growth factor receptor 2 (Homo sapiens) (UniProt P35968); conditions: dose 1000.0 nM
Description: Inhibition of KDR (unknown origin) at 1000 nM relative to control

[24] = molecular target: ALK tyrosine kinase receptor (Homo sapiens) (UniProt Q9UM73); experiment: Inhibition of ALK (unknown origin) at 1000 nM relative to control
MV4-11 [25] = experiment: Reduction in intracellular ROS level in human MV4-11 cells measured after 12 hrs by DCFH-DA probe based flow cytometry; format: functional, cell-based; conditions: dose 25-200 nM
[26] = molecular target: Receptor-type tyrosine-protein kinase FLT3 (Homo sapiens) (UniProt P36888); experiment: Inhibition of FLT3 in human MOLM-13 cells assessed as reduction in STAT5 phosphorylation at 15 nM by Western blot analysis; format: cell-based; conditions: time 0-12 hrs, TDE = time-dependent effect
[27] = molecular target: Mast/stem cell growth factor receptor Kit (Homo sapiens) (UniProt P10721); experiment: Induction of KIT degradation in human MOLM-13 cells at 0 to 25 nM after 24 hrs by Western blot analysis; format: cell-based; conditions: dose 0-25 nM
[28] = molecular target: Mitogen-activated protein kinase 1 (Homo sapiens) (UniProt P28482); experiment: Inhibition of MAPK2 (unknown origin) at 1000 nM relative to control
[29] = molecular target: CDK7/Cyclin H/MNAT1 (Homo sapiens) (UniProt P51946+P50613+P51948); experiment: Inhibition of CDK7/cyclinH/MAT1 (unknown origin) at 1000 nM relative to control; format: protein-complex assay
[30] = molecular target: Maternal embryonic leucine zipper kinase (Homo sapiens) (UniProt Q14680); experiment: Inhibition of MELK (unknown origin) at 1000 nM relative to control
[31] = molecular target: Proto-oncogene tyrosine-protein kinase Src (Homo sapiens) (UniProt P12931); experiment: Inhibition of SRC (unknown origin) at 1000 nM relative to control
[32] = molecular target: Serine/threonine-protein kinase TBK1 (Homo sapiens) (UniProt Q9UHD2); experiment: Inhibition of TBK1 (unknown origin) at 1000 nM relative to control
Serine/threonine-protein kinase TBK1 (Homo sapiens), sequence (Q9UHD2 whole entry): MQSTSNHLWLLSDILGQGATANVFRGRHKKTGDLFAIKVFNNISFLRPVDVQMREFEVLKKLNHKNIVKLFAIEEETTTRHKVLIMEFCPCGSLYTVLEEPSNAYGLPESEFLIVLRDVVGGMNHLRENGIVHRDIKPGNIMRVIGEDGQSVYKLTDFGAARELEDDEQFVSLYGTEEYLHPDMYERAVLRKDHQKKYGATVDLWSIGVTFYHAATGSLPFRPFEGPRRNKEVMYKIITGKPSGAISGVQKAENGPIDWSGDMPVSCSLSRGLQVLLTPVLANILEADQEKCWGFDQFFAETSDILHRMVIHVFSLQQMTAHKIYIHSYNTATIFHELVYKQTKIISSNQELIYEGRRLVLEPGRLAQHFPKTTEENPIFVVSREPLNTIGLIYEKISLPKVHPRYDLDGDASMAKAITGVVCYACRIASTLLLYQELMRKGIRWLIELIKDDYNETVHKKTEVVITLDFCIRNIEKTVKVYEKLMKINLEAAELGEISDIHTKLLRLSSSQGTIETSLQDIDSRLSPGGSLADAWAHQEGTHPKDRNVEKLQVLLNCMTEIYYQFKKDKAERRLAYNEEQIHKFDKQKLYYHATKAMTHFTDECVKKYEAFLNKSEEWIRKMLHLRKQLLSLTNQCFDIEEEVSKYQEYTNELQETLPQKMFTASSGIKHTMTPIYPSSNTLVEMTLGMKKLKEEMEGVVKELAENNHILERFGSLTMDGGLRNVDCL

[33] = molecular target: Platelet-derived growth factor receptor beta (Homo sapiens) (UniProt P09619); experiment: Induction of PDGFR degradation in human MOLM-13 cells at 0 to 25 nM after 24 hrs by Western blot analysis; format: cell-based; conditions: dose 0-25 nM
[34] = molecular target: Serine/threonine-protein kinase Chk1 (Homo sapiens) (UniProt O14757); experiment: Inhibition of CHK1 (unknown origin) at 1000 nM relative to control
[35] = molecular target: Receptor-type tyrosine-protein kinase FLT3 (Homo sapiens) (UniProt P36888); experiment: Inhibition of FLT3 in human MV4-11 cells assessed as reduction in ERK phosphorylation at 15 nM by Western blot analysis; format: cell-based; conditions: time 0-12 hrs, TDE = time-dependent effect
[36] = molecular target: Mast/stem cell growth factor receptor Kit (Homo sapiens) (UniProt P10721); experiment: Induction of KIT degradation in human MV4-11 cells at 0 to 25 nM after 24 hrs by Western blot analysis; format: cell-based; conditions: dose 0-25 nM
[37] = molecular target: Receptor-type tyrosine-protein kinase FLT3 (Homo sapiens) (UniProt P36888); experiment: Inhibition of FLT3 in human MOLM-13 cells assessed as reduction in ERK phosphorylation at 15 nM by Western blot analysis; format: cell-based; conditions: time 0-12 hrs, TDE = time-dependent effect

Platelet-derived growth factor receptor beta (Homo sapiens), sequence (P09619 whole entry): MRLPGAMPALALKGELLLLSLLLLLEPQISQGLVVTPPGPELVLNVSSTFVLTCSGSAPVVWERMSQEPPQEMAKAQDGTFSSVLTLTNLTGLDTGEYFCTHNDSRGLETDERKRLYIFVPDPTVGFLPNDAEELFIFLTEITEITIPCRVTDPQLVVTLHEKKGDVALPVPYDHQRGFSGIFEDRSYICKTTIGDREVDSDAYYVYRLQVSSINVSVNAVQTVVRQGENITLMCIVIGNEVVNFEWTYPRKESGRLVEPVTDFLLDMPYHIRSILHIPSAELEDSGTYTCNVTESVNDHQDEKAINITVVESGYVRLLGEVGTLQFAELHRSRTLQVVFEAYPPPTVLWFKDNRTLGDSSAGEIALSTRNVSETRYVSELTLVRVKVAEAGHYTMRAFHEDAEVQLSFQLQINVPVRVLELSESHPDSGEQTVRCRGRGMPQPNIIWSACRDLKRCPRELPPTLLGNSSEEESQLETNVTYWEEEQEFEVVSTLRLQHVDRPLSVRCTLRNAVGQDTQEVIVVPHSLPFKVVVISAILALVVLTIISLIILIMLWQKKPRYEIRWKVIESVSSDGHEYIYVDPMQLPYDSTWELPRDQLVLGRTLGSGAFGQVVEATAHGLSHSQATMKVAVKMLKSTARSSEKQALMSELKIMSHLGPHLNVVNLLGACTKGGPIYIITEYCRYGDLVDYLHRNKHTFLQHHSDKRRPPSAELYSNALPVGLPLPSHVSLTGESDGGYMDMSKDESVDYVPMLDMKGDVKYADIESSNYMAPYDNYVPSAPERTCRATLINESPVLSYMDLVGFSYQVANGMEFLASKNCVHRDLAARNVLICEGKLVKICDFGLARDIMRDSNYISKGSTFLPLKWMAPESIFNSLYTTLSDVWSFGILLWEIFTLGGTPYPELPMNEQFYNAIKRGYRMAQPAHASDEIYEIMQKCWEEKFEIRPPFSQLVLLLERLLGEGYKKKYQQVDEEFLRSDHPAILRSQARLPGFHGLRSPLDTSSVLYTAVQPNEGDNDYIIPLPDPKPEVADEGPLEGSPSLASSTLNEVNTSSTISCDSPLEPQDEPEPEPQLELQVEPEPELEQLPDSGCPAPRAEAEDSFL

Nc1c(-c2nc3cc(N4CCN(C(=O)CCCCCNc5cccc6c5C(=O)N(C5CCC(=O)NC5=O)C6=O)CC4)ccc3[nH]2)c(=O)[nH]c2cccc(F)c12 (configuration not stated)
Activity [1]: Active
inhibition [2]: 42%
inhibition [3]: 4%
inhibition [4]: Active
Activity [5]: Dose-Dependent Effect
inhibition [6]: Tde
inhibition [7]: 7%
Activity [8]: Active
inhibition [9]: 7%
inhibition [10]: Tde
Activity (MOLM-13 [11]): Active
Activity (MOLM-13 [12]): Dose-Dependent Effect
IC50 (MOLM-13 [13]): 9.5 nM
inhibition [14]: 1%
inhibition [15]: 4%
Activity (MV4-11 [16]): Tde
inhibition [17]: 83%
inhibition [18]: 0%
Activity (MV4-11 [19]): Active
Activity (MV4-11 [20]): 5.19%
Activity [21]: Dose-Dependent Effect
inhibition [22]: 17%
inhibition [23]: 69%
inhibition [24]: 25%
Activity (MV4-11 [25]): Dose-Dependent Effect
inhibition [26]: Tde
Activity [27]: Active
inhibition [28]: 54%
inhibition [29]: 0%
inhibition [30]: 11%
inhibition [31]: 37%
inhibition [32]: 22%
Activity [33]: Active
inhibition [34]: 26%
inhibition [35]: Tde
Activity [36]: Active
inhibition [37]: Tde
